# Conditions: acidic group
row,Compound,pKa
1,CCc1c(-c2ccccc2)nn(C2CC[NH+](C)CC2)c1O,5.9
2,O=[N+]([O-])c1ccc([Se](=O)O)cc1,4
3,O=P(O)(O)C([NH2+]Cc1ccc[nH+]c1)c1ccccc1O (configuration not stated),2.28
4,C[n+]1ccc2c(O)cccc2c1,6.9
5,[O-]/C(O)=C1\SCc2ccccc21,12.8
6,Oc1cc[nH+]nc1,1.07
7,Cc1cccc(C(C)C)c1O,10.8
8,Cc1nc2c(n1C)C(=O)c1[nH]c(=O)[nH]c(=O)c1C2=O,5.82
9,Oc1cccc2cccc(O)c12,6.71
10,N#CCCNC(CC(N)=O)C(=O)O (configuration not stated),6.46
11,Cc1ccccc1NN=C(C#N)C#N,6.9
12,N#CC(C#N)=NNc1ccccc1C(F)(F)F,5
13,COc1ccc(NC(C)=S)cc1,12
14,CC(C)([SeH])C[NH3+],5.21
15,OC(c1ccncc1)n1cc[nH+]c1 (configuration not stated),7.24
16,Cc1ccc(/C=C/C(=O)C(=O)O)cc1,1.96
17,CC1CCCC(C)C1C(=O)O (configuration not stated),4.88
18,O/N=C/c1ccco1,10.8
19,COc1cc(S(C)=O)ccc1-c1nc2cnncc2[nH]1 (configuration not stated),8.49
20,CCC(C)C[C@H]([NH3+])C(=O)O (some centres not stated),3.25
21,CC(C)C(=O)CC(=O)C(C)C,9.86
22,CC(=O)N[C@H]1CONC1=O,5.8

row,Compound,pKa
1,C[N+](C)(C)c1ccc(O)c([N+](=O)[O-])c1,5.03
2,CS(=O)(=O)Nc1ccc(CC([NH3+])C(=O)O)cc1 (configuration not stated),3.15
3,CCOC(=O)/C=C(/C)O,9.51
4,O=[Se](O)c1ccccc1-c1ccccc1,4.67
5,O=C(O)CCCC1CCCCC1,4.95
6,CC(=O)c1cc(C(C)=O)[nH]n1,8.98
7,O=[N+]([O-])c1cc(C[NH+]2CCOCC2)c(O)c2ccccc12,3
8,CCN(CC)Cc1ccccc1O,10.8
9,O=C(O)c1cc2ccccc2s1,3.1
10,Cc1ccc(I)c(C(=O)O)c1,2.95
11,CCCCOc1ccc(O)cc1,10.2
12,COC(=O)c1ccc(NC=S)cc1,10.9
13,O=c1ccccc(Br)c1O,5.96
14,CCNC(O)=S,0.92
15,OCC[n+]1cc(Br)c2ccccc2c1,13.1
16,CCC/C=C(\C)C(=O)O,5.13
17,O=C(O)[C@@H]1C[C@@H]1c1ccccc1,4.82
18,COc1ccccc1C(=O)NO,8.9
19,CCCCc1c(-c2ccccc2)nn(-c2ccccc2)c1O,7.2
20,CCc1cc(C)cc(O)c1,10.1
21,Nc1ccc(O)c([N+](=O)[O-])c1,7.81
22,Cc1cccc(C(=O)O)c1[N+](=O)[O-],2.91

row,Compound,pKa
1,C[C@H](CCC(=O)O)[C@H]1CC[C@H]2[C@@H]3[C@@H](O)C[C@@H]4C[C@H](O)CC[C@]4(C)[C@H]3CC[C@]12C,5.08
2,c1ccc([P+](c2ccccc2)(c2ccccc2)C2c3ccccc3-c3ccccc32)cc1,8.99
3,Cc1cccc(NS(=O)(=O)c2ccc(N)cc2)[n+]1[O-],5.9
4,C[NH+](C)c1ccccc1C(=O)O,1.4
5,Cc1cccc(O)c1C(=O)Oc1ccccc1,8.63
6,O=c1cc(-c2cccc(O)c2)oc2ccccc12,9.75
7,CCc1cc(C(C)C)ccc1O,10.8
8,CC(=O)/C(Cl)=N/O,7.9
9,O=C1CCC(=O)N1O,6.04
10,C[n+]1cccc2cc(O)ccc21,7.15
11,C[n+]1nc(O)ccc1[O-],5.65
12,ONc1ncnc2nc[nH]c12,9.83
13,COP(=O)(O)NS(=O)(=O)c1ccccc1,1.05
14,CCSC(C)O (configuration not stated),14.3
15,O=C1NC(=O)c2c1cccc2[N+](=O)[O-],8.8
16,CC(C)=CCC(=O)O,4.6
17,Cc1c(O)cccc1C(=O)O,3.83
18,O=C(Cc1ccccn1)c1ccccc1,13.3
19,[NH3+]C(Cc1c[nH]c(=S)[nH]1)C(=O)O (configuration not stated),1.84
20,COc1cc(/C=N/c2ncc3nc[nH]c3n2)ccc1O,8.91
21,CC(=O)[n+]1cccc(C)c1,5.81

# Same assay, conditions: basic group
row,Compound,pKa
1,CCC(=O)c1ccccc1,17.6
2,CC1CCCN1C (configuration not stated),10.2
3,CN1[C@@H]2CC[C@H]1C[C@H](O)C2,10.3
4,CN1[C@@H](CC(=O)c2ccccc2)CCC[C@H]1C[C@@H](O)c1ccccc1,8
5,Nc1ncnc([S-])c1N,9.34
6,C[C@@H](Cc1ccccc1)N(C)C,9.4
7,c1cnccn1,0.57
8,[S-]c1ncnc2ncncc12,6.23
9,C1CCc2c(nnc3c2CCCC3)C1,6.12
10,Cn1c2c(s/c1=N\N)CCCC2,8.2
11,[NH3+]c1ccc(-c2ncc(-c3ccccc3)o2)cc1,0.06
12,CN(C)c1ccc(/N=N/c2ccccn2)cc1,4.5
13,C[C@@H]1CCC[C@H](C)N1C,10.2
14,C1CCN(N2CCCC2)C1,7.16
15,CN(C)CC(=O)[O-],9.81
16,Cc1cnnc(C)c1,4.11
17,CCNCC(=O)c1ccc(O)cc1,7.77
18,C1CNCCSCCNC1,12
19,CCN(CC)CCC#N,7.62
20,C[C@H]1[C@@H](N)[C@@H](C)[C@@H](N)[C@@H](C)[C@H]1N,7.83
21,CCNc1ccccc1C,4.92
22,CCN(CC)c1ccc([N+](=O)[O-])cc1,1.7
23,Nc1c(C(=O)[O-])ncn1[C@H]1O[C@@H](CO)[C@H](O)[C@@H]1O,5.9

row,Compound,pKa
1,Cc1cc(CN)c(O)c(CN)c1,9.7
2,CN(C)c1ncc(-c2ccccc2)s1,4.89
3,Nc1cccc(-c2cccc(N)n2)n1,6.7
4,Brc1cccnc1,2.94
5,C/C(=C(\CCO)SSCCC(C)C)N(C=O)Cc1cnc(C)nc1N,5.58
6,Cc1ccccc1NN=C(C#N)C#N,-0.84
7,Cc1nnc2c(c1C)CCCC2,5.41
8,CC(C)C(C(C)C)N(C)C,10.1
9,N#CC(C#N)=NNc1ccccc1C(F)(F)F,-0.7
10,O=C([O-])CCCCCN1CCCCC1,10.5
11,COC(=O)c1cc(Br)c(=O)n(N)c1,2.4
12,CCCN(CC)c1ccccc1,6.39
13,COc1cc(S(C)=O)ccc1-c1nc2cnncc2[nH]1 (configuration not stated),3.81
14,CN1CCC[NH+](C)Cc2ccccc2OCCOc2ccccc2C1,7.92
15,c1ccc(-n2cccn2)nc1,1.07
16,Cc1cccc(C)n1,6.85
17,O=C1N[C@@H](Cc2cnc[nH]2)C(=O)N[C@H]1Cc1cnc[nH]1,6.54
18,NCCCCCC#CC#CCCC(=O)[O-],10.7
19,Cc1cc(O)cc(O)c1C(=N)c1ccccc1,6.75
20,C/C(=C\C(C)=N\c1ccccc1)Nc1ccccc1,7.22
21,N#CCCNCCC#N,5.23
22,CCN(CC)CCCN(CC)CC,10.2
23,CO[C@H]1CC=C2CCN3CCC(CO)=C(CCO)[C@]23C1,8.69

row,Compound,pKa
1,Clc1ccc(Nc2ccccc2)cc1,0
2,CN1CC[C@]23c4c5ccc(O[C@@H]6O[C@H](C(=O)[O-])[C@@H](O)[C@H](O)[C@H]6O)c4O[C@H]2[C@@H](O)C=C[C@H]3[C@H]1C5,8.1
3,CCCN1CC(O[Si](C)(C)C)C1,8.89
4,CC(C)(C)c1ccc(C(O)CCCN2CCC(C(O)(c3ccccc3)c3ccccc3)CC2)cc1 (configuration not stated),8.6
5,CCC(O)CN(C)CC(C)O (configuration not stated),8.9
6,CN(C)CCC(c1ccccc1)c1ccccn1 (configuration not stated),9.29
7,CCN(CC)c1ccccc1,6.6
8,CCN(CC)CCBr,7
9,CCC(C)N(C)C (configuration not stated),10.4
10,CCN(CC)CC(O)CN(CC)CC,9.8
11,CCCCN(CC1CO1)CC1CO1 (configuration not stated),6.91
12,CCN(CC)Cc1ccccc1O,8.81
13,C[NH+](C)CCCNc1c2ccccc2nc2c(F)ccc([N+](=O)[O-])c12,5.41
14,SCCNCc1cccs1,8.93
15,c1cnc2c(c1)ccc1[nH+]cccc12,1
16,CCOC(=O)c1cnc2ccccc2c1[O-],9.62
17,Nc1ccc(Sc2ccc(N)cc2)cc1,4.25
18,CCN(CC)CC(O)CO (configuration not stated),9.77
19,CCc1nc2cc3c(cc2[nH]1)CCCC3,6.64
20,OCCCc1ccccn1,5.71
21,CCOC(=O)c1ccc(N)cc1,2.58
22,C1CCC(C2=NCCC2)CC1,6.05
23,N#Cc1ccc(N)cc1,1.74

row,Compound,pKa
1,OCc1c[nH]cn1,6.38
2,CC1=CN(C)CC1C (configuration not stated),9.6
3,[O-]c1ccc(Cl)cc1CN1CCCCC1,11.8
4,NCCOCCO,9.43
5,Cc1ccc2nc3ccc(C)cc3cc2c1,4.5
6,c1ccc(-n2cnnn2)cc1,-3.41
7,CC1CN=C(C(C)(C)C)S1 (configuration not stated),5.02
8,CN(C)CC[Se-],10.8
9,CCOC(=O)N1CCNCC1,8.28
10,CON(C)C,3.65
11,C1CN(CC[NH+]2CCOCC2)CCO1,3.63
12,COc1ccccc1/C(=N/CCCN(C)C)c1ccccc1,9
13,CC(C)N/C=N/c1ccc(-c2cn(C)cn2)cc1,8.99
14,Cc1ncc[nH]1,7.97
15,CCN(C)N(C)C,6.38
16,Cc1cccc(C)c1/C(=N/CCCN(C)C)c1ccccc1,8.7
17,C=C(C)C(=O)OCCN(CC)CC,8.66
18,CNC(CO)CO,9.12
19,Cc1ccc2nccc(NCCC[NH+](C)C)c2c1[N+](=O)[O-],6.15
20,CN(CCC#N)CCC#N,4.24
21,CCSCCN,9.48
22,CNc1ccncn1,6.12
23,CCCCN/C(C)=N/N(C)C,10.4

row,Compound,pKa
1,Cc1nc(C(=O)[O-])cs1,3.9
2,ONc1ncnc2nc[nH]c12,3.8
3,NCCCCc1ccncc1,10.2
4,Nc1ccc(C(=O)c2ccc([NH3+])cc2)cc1,1.37
5,Cc1cc(C)ncn1,2.7
6,Cn1cc/c(=N\N)c2ccccc21,10.6
7,CCCCN1CCCCC1C(=O)Nc1c(C)cccc1C (configuration not stated),7.27
8,NCC(=O)Nc1ccc([N+](=O)[O-])cc1,8.5
9,CCCCCCN(CC(C)O)CC(O)CC (configuration not stated),8.9
10,CC(C)NCC(=O)c1ccc([O-])cc1,9.58
11,O=C(Cc1ccccn1)c1ccccc1,4.53
12,C[NH2+]CC(=O)NCCc1c[nH]cn1,6.77
13,Cc1cc(C(c2ccc(N)cc2)c2ccc(N)cc2)ccc1[NH3+],3.8
14,COc1cc(/C=N/c2ncc3nc[nH]c3n2)ccc1O,2.79
15,Cc1ccc2ccc3ccc(C)nc3c2n1,6.15
16,Cc1cnc2c(ccc3cccnc32)c1,5
17,CCOc1ccc2[nH]c(C(C)C)nc2c1,6.17
18,NCCCCCCBr,10.6
19,CN(C)c1ccc2ccccc2c1,4.57
20,Cc1cc(N)cc(C)c1C,5.15

# Source: the pKa sets of Baltruschat and Czodrowski (2020)
